Literature values in patent US7625898B2, “Posaconazole polymer conjugates and methods of treatment using posaconazole and polymer conjugates thereof” (Enzon Pharmaceuticals, Inc., priority 2007, dated 2009).

Conditions: background statement on unmodified posaconazole

water solubility: < 2 µg/mL
SMILES: CC[C@@H]([C@H](C)O)n1ncn(-c2ccc(N3CCN(c4ccc(OC[C@@H]5CO[C@@](Cn6cncn6)(c6ccc(F)cc6F)C5)cc4)CC3)cc2)c1=O [Posaconazole, posaconazole]
